Measured values from patent US11046682B2, “Fused heterocyclic derivatives, their preparation methods thereof and medical uses thereof” (Beijing Innocare Pharma Tech Co., Ltd., priority 2016, dated 2021).
pIC50: −log10 of the molar value.

Tests used:
[1] = target: full-length human recombinant IDO1 protein (Homo sapiens (Human), UniProt P14902); assay: IDO enzyme activity inhibition testing (Ehrlich method); assay type: biochemical; conditions: OD490, 10 concentration points
Description: IDO Enzyme Activity Inhibition Testing
The effects of the compounds of the invention on the activity of indoleamine 2,3-dioxygenase (IDO) were evaluated by the Ehrlich method.
The experimental principle is summarized as follows: IDO1 catalyzes oxidation of tryptophan to form N-formyl kynurenine, N-formyl kynurenine is subsequently hydrolyzed by trichloroacetic acid to form kynurenine, and kynurenine further reacts with the Ehrlich reagent to make the solution yellow. The absorbance at 490 nm (OD490) is directly proportional to the activity of IDO1.
The experimental methods are summarized as follows:
The reaction buffer was 50 mM 2-(N-morpholine)ethanesulfonic acid-hydrate (Sigma, Cat. No. 69889); the full-length human recombinant IDO1 protein was purchased from the Tsinghua Protein Research Technology Center and diluted to a 33.6 ng/μL enzyme solution with the reaction buffer; the substrate solution was prepared with the reaction buffer containing 20 mM vitamin C (Sigma, Cat. No. A5960), 150 μM L-tryptophan (Sigma, Cat. No. T0254), 2250 UI/mL catalase (Sigma, Cat. No. C30), and 10 μM methylene blue (Sigma, Cat. No. 28514); the reaction termination solution was 30% (mass/volume) trichloroacetic acid (Sigma, Cat. No. T9159) aqueous solution; the Ehrlich reagent was 2% p-dimethylaminobenzaldehyde (Sigma, Cat. No. 156477) acetic acid (Macklin, Cat. No. A801295) solution.
A compound was dissolved in DMSO (Sigma, Cat. No. D5879) and diluted to 1 mM, then serially diluted 3-fold with DMSO to a minimum concentration of 50.8 nM, and each concentration was further diluted 25-fold with the reaction buffer. If a compound's IC50 value was very low, the initial concentration of the compound was decreased.
A 10-μL compound solution and a 10-μL enzyme solution were added to a 96-well plate (Sigma, Cat. No. CLS3695), mixed well and incubated at room temperature. After 15 min, a 20-μL substrate solution was added and incubated at 60° C. after mixing for 30 min. The reaction plate was equilibrated to room temperature and 60 μL of the Ehrlich reagent was added. After incubation for 15 min, OD490 of each well was measured.
In this experiment, OD490 without enzyme was referred as OD490100% inhibition, and OD490 with enzyme added but without compound was referred as OD4900% inhibition.
(§1) Where Y is the percentage of inhibition, Bottom is the bottom platform value of the S-curve, Top is the top platform value of the S-curve, X is the logarithm of the concentration of the test compound, and slope factor is the slope coefficient of the curve.

[2] = target: indoleamine 2,3-dioxygenase (IDO) in Hela cells (Homo sapiens (Human), UniProt P14902); assay: IDO intracellular activity inhibition testing in Hela cells induced by IFN-γ (Ehrlich method); assay type: cell-based; conditions: 24 hours, OD490, 8 concentration points
Chain of indoleamine 2,3-dioxygenase (IDO) in Hela cells (P14902 whole entry): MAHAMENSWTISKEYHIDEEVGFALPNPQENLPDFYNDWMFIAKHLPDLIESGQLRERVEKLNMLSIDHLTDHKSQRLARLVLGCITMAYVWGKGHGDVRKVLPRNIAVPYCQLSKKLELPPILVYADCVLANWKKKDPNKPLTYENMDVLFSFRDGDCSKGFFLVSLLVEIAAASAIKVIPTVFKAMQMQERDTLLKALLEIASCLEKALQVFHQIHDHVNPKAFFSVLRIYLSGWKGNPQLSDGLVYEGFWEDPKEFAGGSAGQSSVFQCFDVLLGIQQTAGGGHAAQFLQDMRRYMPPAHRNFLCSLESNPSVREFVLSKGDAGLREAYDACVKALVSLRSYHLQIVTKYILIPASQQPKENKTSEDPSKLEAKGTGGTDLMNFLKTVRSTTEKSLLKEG
Description: IDO Intracellular Activity Inhibition Testing
The effects of the compounds of the invention on the activity of indoleamine 2,3-dioxygenase (IDO) in Hela cells induced by IFN-γ were evaluated by the Ehrlich method.
The experimental principle is summarized as follows: IDO expression is low in Hela cells under no induction, but a certain concentration of IFN-γ can induces Hela cells to express IDO which catalyzes the conversion of tryptophan to N-formyl kynurenine, which in turn is hydrolyzed by trichloroacetic acid to give kynurenine. Kynurenine then reacts with the Ehrlich reagent to give a color enabling detection of the IDO activity. The absorbance at 490 nm (OD490) is directly proportional to the IDO activity.
A compound was dissolved in DMSO (Sigma, Cat. No. D5879) and diluted to 5 mM, then serially diluted 3-fold with DMSO to a minimum concentration of 2.29 μM, and each concentration point was diluted 50-fold with FBS-free DMEM medium (ThermoFisher, Cat. No. 11995073). If a compound's IC50 value is very low, the initial concentration of the compound was lowered.
Hela cells (ATCC, Cat. No. CCL-2) were cultured in DMEM complete medium containing 10% FBS (GBICO, Cat. No. 10099-141) and 100 U/mL streptomycin mixture (ThermoFisher, Cat. No. 15140122). When covering the culture vessel 80-90%, the cells were digested with 0.25% trypsin (containing EDTA) (ThermoFisher, Cat. No. 25200056) and planted in 96-well plates (Corning, Cat. No. 3599), 20000 cells per well (80 μL of DMEM medium). The plates were then incubated in a 37° C., 5% CO2 incubator overnight (18-20 hours).
After overnight, 10 μL of DMEM-diluted compound and 10 μL of 500 ng/mL of INF-γ were added to each well, and gently mixed and the 96-well plates were placed in a 37° C., 5% CO2 incubator for further culturing. After 24 hours, they were removed and centrifuged at room temperature 2000×g for 5 min, and then the supernatants were transferred to reaction plates (Sigma, Cat. No. CLS3695). One-twentieth of trichloroacetic acid (Sigma, Cat. No. T9159) was added and incubated at 60° C. After 30 min, the reaction plates were centrifuged at room temperature 2000×g for 5 min. The supernatants were transferred to clean reaction plates, an equal volume of the Ehrlich reagent was added, mixed, and incubated at room temperature. After 15 min, OD490 of each well was measured.
In this experiment, OD490 without IFN-γ but with DMEM medium replacement was referred as OD490100% inhibition. OD490 with IFN-γ and 0.2% DMSO was referred as OD4900% inhibition. The percentage of inhibition on the IDO1 activity in Hela cells by a compound was calculated using the following formula: Inhibition %=100−100*(OD490compound−OD490100% inhibition)/(OD4900% inhibition−OD490100% inhibition)
as §1

plasma IDO1 = plasma IDO1 (Mus musculus (Mouse), UniProt P28776); conditions: nude mice, single dose; at the level of IDO-deficient mice; cited from earlier work
Chain of plasma IDO1 (P28776 whole entry): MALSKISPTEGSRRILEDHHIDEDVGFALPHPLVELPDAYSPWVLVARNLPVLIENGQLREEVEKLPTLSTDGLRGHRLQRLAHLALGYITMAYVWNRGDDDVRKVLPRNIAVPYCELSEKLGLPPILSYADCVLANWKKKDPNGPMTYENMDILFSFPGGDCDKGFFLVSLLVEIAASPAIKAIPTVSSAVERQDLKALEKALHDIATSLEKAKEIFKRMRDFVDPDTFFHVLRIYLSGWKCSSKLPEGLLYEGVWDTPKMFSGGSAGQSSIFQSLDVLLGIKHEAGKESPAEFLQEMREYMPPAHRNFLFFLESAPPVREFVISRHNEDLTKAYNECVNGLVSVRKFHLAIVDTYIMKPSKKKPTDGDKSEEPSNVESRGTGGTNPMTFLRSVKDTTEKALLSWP

CT26 tumors = conditions: repeated doses; cited from earlier work

Chain of full-length human recombinant IDO1 protein (P14902 whole entry): as the sequence (P14902 whole entry) above

pIC50 [1] | pIC50 [2] | SMILES | activity of plasma IDO1 (plasma IDO1) | expansion of CT26 tumors (CT26 tumors)
> 6.60 | > 6.00 | N#Cc1ccc(NC(=O)Nc2c(-c3ccccc3)ccc3cncn23)cc1 [Compound 17, 1-(4-cyanophenyl)-3-(6-phenylimidazo[1,5-a]pyridin-5-yl)urea] |  | 
> 6.60 | 5.00 to 6.00 | N#Cc1ccc(NC(=O)Nc2c(Cl)ccc3cncn23)cc1 [Compound 19, 1-(6-chloroimidazo[1,5-a]pyridin-5-yl)-3-(4-cyanophenyl)urea] |  | 
5.82 to 6.60 | 5.00 to 6.00 | N#Cc1ccc(NC(=O)Nc2c(-c3ccc(F)cc3)ccc3cncn23)cc1 [Compound 21, 1-(4-cyanophenyl)-3-(6-(4-fluorophenyl)imidazo[1,5-a]pyridin-5-yl)urea] |  | 
> 6.60 | > 6.00 | N#Cc1ccc(NC(=O)Nc2c(-c3cccc(F)c3)ccc3cncn23)cc1 [Compound 22, 1-(4-cyanophenyl)-3-(6-(3-fluorophenyl)imidazo[1,5-a]pyridin-5-yl)urea] |  | 
> 6.60 | > 6.00 | N#Cc1ccc(NC(=O)Nc2c(-c3ccccc3F)ccc3cncn23)cc1 [Compound 23, 1-(4-cyanophenyl)-3-(6-(2-fluorophenyl)imidazo[1,5-a]pyridin-5-yl)urea] |  | 
> 6.60 | 5.00 to 6.00 | N#Cc1ccc(NC(=O)Nc2c(C3=CCCC3)ccc3cncn23)cc1 [Compound 24, 1-(4-cyanophenyl)-3-(6-(cyclopent-1-en-1-yl)imidazo[1,5-a]pyridin-5-yl)urea] |  | 
> 6.60 | > 6.00 | N#Cc1ccc(NC(=O)Cc2c(-c3ccccc3)ccc3cncn23)cc1 [Compound 37, N-(4-cyanophenyl)-2-(6-phenylimidazo[1,5-a]pyridin-5-yl)acetamide] |  | 
> 6.60 | > 6.00 | O=C(Cc1c(-c2ccccc2)ccc2cncn12)Nc1ccc(C(=O)NCCN2CCOCC2)cc1 [Compound 49, N-(2-morpholinoethyl)-4-(2-(6-phenylimidazo[1,5-a]pyridin-5-yl)acetamido)benzamide] |  | 
> 6.60 | > 6.00 | O=C(Cc1c(-c2ccccc2)ccc2cncn12)Nc1ccc(C(=O)NCCCN2CCOCC2)cc1 [Compound 50, N-(3-morpholinopropyl)-4-(2-(6-phenylimidazo[1,5-a]pyridin-5-yl)acetamido)benzamide] |  | 
> 6.60 | > 6.00 | O=C(Cc1c(-c2ccccc2)ccc2cncn12)Nc1ccc(-c2cn[nH]c2)cc1 [Compound 51, N-(4-(1H-pyrazol-4-yl)phenyl)-2-(6-phenylimidazo[1,5-a]pyridin-5-yl)acetamide] |  | 
> 6.60 | 5.00 to 6.00 | O=C(Cc1c(-c2ccccc2)ccc2cncn12)Nc1cc[nH]n1 [Compound 53, 2-(6-phenylimidazo[1,5-a]pyridin-5-yl)-N-(1H-pyrazol-3-yl)acetamide] |  | 
5.82 to 6.60 | 5.00 to 6.00 | O=C(Cc1c(-c2ccccc2)ccc2cncn12)Nc1cn[nH]c1 [Compound 54, 2-(6-phenylimidazo[1,5-a]pyridin-5-yl)-N-(1H-pyrazol-4-yl)acetamide] |  | 
 |  | NS(=O)(=O)NCCNc1nonc1C(=NO)Nc1ccc(F)c(Br)c1 [INCB-024360] | effectively inhibit the activity of plasma IDO1 | prevented the expansion of CT26 tumors
